Consider one molecule from US20220024882A1, “NOVEL TUMOR ANTIGEN BINDING AGENTS AND USES THEREOF” (ITM Isotopen Technologien München AG, priority 2018, published 2022).

The Kd is the free concentration of one partner at which half of the binding sites on the other are occupied at equilibrium, for simple one-to-one binding.

The subject of data set [1] is PSMA-negative PC-3 flu tumor cells. As to the kind of experiment: Cell uptake, PSMA-negative cells. It is filed as cell-based. The following applies: after 4 h. An excerpt:
Cell uptake and internalization of ^177Lu-Ibu-PSMA, ^177Lu-Ibu-Dα-PSMA, ^177Lu-Ibu-Dβ-PSMA, ^177Lu-Ibu-N-PSMA and ^177Lu-Ibu-DAB-PSMA were investigated using PSMA-positive PC-3 PIP and PSMA-negative PC-3 flu tumor cells kindly provided by Prof. Dr. Martin Pomper (John Hopkins Institutions, Baltimore, U.S.; Eiber, M.; Fendler, W. P.; Rowe, S. P.; Calais, J.; Hofman, M. S.; Maurer, T.; Schwarzenboeck, S. M.; Kratowchil, C.; Herrmann, K.; Giesel, F. L. Prostate-specific membrane antigen ligands for imaging and therapy. J Nucl Med 2017, 58, (Suppl 2), 67S-76S). Each radioligand was investigated by the performance of experiments performed 3 times in triplicate with PC-3 PIP tumor cell and once in triplicate with PC-3 flu tumor cells.
Cell uptake and internalization of ^177Lu-Ibu-sPSMA were investigated using PSMA-positive PC-3 PIP and PSMA-negative PC-3 flu tumor cells kindly provided by Prof. Dr. Martin Pomper (Johns Hopkins University School of Medicine, Baltimore, Md., U.S.A.) (Eiber, et al.; J Nucl Med 2017, 58, (Suppl 2), 67S-76S). ^177Lu-Ibu-sPSMA was investigated by performing experiments 3 times in 6 replicates with PC-3 PIP tumor cells and 3 times in 6 replicates with PC-3 flu tumor cells.

A further data set in a line: Radiolytic stability. It is filed as physicochemical. To be noted: 250 MBq/500 μL saline, room temperature, with or without L-ascorbic acid. The method, then:
Radiolytic stability over time was assessed for Ibu-sPSMA in three independent experiments. For this purpose, Ibu-sPSMA was labeled with ^177Lu in a volume of 120 μL at a specific activity of 50 MBq/nmol with or without the addition of L-ascorbic acid (3 mg). After quality control using HPLC (t=0, radiochemical purity ≥98%), the labeling solutions were diluted with saline to 250 MBq/500 μL and incubated at room temperature. The radioligand's integrity was determined by HPLC after 1 h, 4 h and 24 h incubation time as previously reported (Siwowska et al., Mol. Pharmaceutical 2017, 14, (2), 523-532). The HPLC chromatograms were analyzed by integration of the peaks representing the radiolabeled product, the released ^177Lu as well as degradation products of unknown structure (FIG. 15). A quantitative assessment was performed by expressing the peak area of the intact product as percentage of the sum of integrated peak areas of the entire chromatogram.

A further data set deals with T1, PSMA (Homo sapiens, UniProt Q04609).
T1 construct: expressed in transfected cells; host or cells: PC-3 PIP (PSMA-transfected PC-3 human prostate cancer cells), from Prof; Martin Pomper
T1 sequence (Q04609 whole entry): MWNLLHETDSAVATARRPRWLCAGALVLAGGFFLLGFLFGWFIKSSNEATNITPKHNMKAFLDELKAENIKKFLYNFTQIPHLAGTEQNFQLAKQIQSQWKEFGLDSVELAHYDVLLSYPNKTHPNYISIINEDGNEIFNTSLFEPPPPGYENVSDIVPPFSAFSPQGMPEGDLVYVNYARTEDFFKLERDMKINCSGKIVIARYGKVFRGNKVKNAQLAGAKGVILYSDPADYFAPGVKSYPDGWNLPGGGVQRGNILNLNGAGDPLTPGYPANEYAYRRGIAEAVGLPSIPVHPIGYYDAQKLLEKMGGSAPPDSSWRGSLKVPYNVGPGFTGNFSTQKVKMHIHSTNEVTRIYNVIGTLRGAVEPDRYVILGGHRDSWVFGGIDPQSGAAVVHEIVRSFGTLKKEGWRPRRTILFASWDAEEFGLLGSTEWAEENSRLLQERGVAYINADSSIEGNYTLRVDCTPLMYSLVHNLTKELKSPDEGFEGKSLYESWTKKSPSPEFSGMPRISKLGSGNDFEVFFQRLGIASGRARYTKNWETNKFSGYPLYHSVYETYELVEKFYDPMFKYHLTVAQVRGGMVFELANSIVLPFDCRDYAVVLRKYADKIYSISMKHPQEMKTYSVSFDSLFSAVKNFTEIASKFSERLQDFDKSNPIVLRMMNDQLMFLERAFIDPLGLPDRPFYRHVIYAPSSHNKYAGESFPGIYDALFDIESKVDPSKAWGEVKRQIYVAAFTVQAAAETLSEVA
Nature of the data set: Determination of KD values (PSMA-binding affinity). The following applies: PSMA-binding affinity of the 177Lu radioligand.

Data set [2] can be described thus: Plasma protein binding, ultrafiltration assay. It is filed as in vitro ADME. To be noted: incubated in human plasma at 37° C., read-out: fraction of radioligand retained in the filter membrane (serum protein binding) (converted). The method, then:
In short, the PSMA-ligands were labeled with ^177Lu at a specific activity of 50 MBq/nmol and incubated in human plasma samples or PBS at room temperature. The free and plasma-bound fractions were separated using a centrifree ultrafiltration device (4104 centrifugal filter units; Millipore, 30000 Da nominal molecular weight limit, methylcellulose micropartition membranes). The incubated solution was loaded to the ultrafiltration device and centrifuged at 2500 rpm for 40 min at 20° C. Samples from the filtrate were taken and analyzed for radioactivity in a γ-counter. The amount of plasma-bound radioligand was calculated as the fraction of radioactivity measured in the […] relative to the corresponding loading solution (set to 100%). The experiments were performed at least 3 times for each radioligand.
Plasma protein-binding properties of ^177Lu-Ibu-sPSMA were determined using an ultrafiltration assay according to Benesova, M. et al. (Mol Pharm 2018, 15, (3), 934-946). In short, the Ibu-sPSMA-ligand was labeled with ^177Lu at a molar activity of 50 MBq/nmol and incubated in human plasma samples or PBS at 37° C. […] Samples from the filtrate were taken and analyzed for radioactivity in a γ-counter. The amount of plasma-bound radioligand was calculated as the fraction of radioactivity measured in the […] relative to the corresponding loading solution (set to 100%). […]

`CC(C)Cc1ccc(C(C)C(=O)NCC[C@H](NC(=O)CN2CCN(CC(=O)O)CCN(CC(=O)O)CCN(CC(=O)O)CC2)C(=O)NCC2CCC(C(=O)N[C@@H](Cc3ccc4ccccc4c3)C(=O)NCCCC[C@H](NC(=O)N[C@@H](CCC(=O)O)C(=O)O)C(=O)O)CC2)cc1` (stereo partly shown) [^177Lu-Ibu-sPSMA, metal not drawn]: in data set [1], the “uptake in PC-3 flu tumor cells” value is less than 0.1%. Also, in “Radiolytic stability”, the “radiolytic stability (percentage of intact radioligand up to 24 h)” value was “significantly more stable than ^177Lu-PSMA-617 and all other ibuprofen-derivatized PSMA radioligands”. At PSMA, this molecule showed a Kd of 0.04 ± 0.005 µM. The fraction unbound in data set [2] was roughly 0.03.
